Here are results for three molecules from US20050074850A1, “Novel calcium channels and uses thereof” (Synta Pharmaceuticals Corp., priority 2003, published 2005).

Data set [1] relates to L-type calcium channel. Nature of the data set: Whole-cell patch clamp of L-type currents in Jurkat T cells. In kind it is cell-based, human. Here is the method:
In these patch clamp experiments, Jurkat cells that were grown in suspension cultures were washed once with standard external solution and plated directly onto the experimental bath chamber. Cells were kept in a standard modified Ringer's solution of the following composition (in mM): […] pipette-filling solutions for voltage-gated L-type channels contained (in mM): […], the above solution was replaced by an otherwise identical extracellular solution in which 10 μM Bay K was added to the bath. Intracellular pipette-filling solutions for voltage-gated L-type channels in some cases contained (in mM): Cs-glutamate 120, NaCl 8, MgCl2 1, MgATP 2, NaGTP 0.3, Cs-BAPTA 10, Hepes-CsOH 10, pH 7.2. Patch clamp experiments were performed in the tight-seal whole-cell configuration at 24±2° C. High-resolution current recordings were acquired by a computer-based patch clamp amplifier system (EPC-9, HEKA, Lambrecht, Germany). Patch pipettes had resistances between 2-4 MΩ after filling with the standard intracellular solution. For L-type current measurements the holding potential was −80 mV and the duration of the ramp was 100 ms for optimal L-type current size. All voltages were corrected for a liquid junction potential of 10 mV between external and internal solutions. Currents were filtered at 2.3 kHz and digitized at 100 μs intervals. Capacitive currents and series resistance were determined and corrected before each voltage ramp using the automatic capacitance compensation of the EPC-9. For ICRAC analysis, the very first ramps prior to current activation were digitally filtered at 2 kHz, pooled and used for leak-subtraction of all subsequent current records. The low-resolution temporal development of currents at a given potential was extracted from the leak-corrected individual ramp current records by measuring the current amplitudes at voltages of −80 mV or +80 mV, respectively. Similarly, one of the first ramps could be used as leak-subtraction for L-type currents, as the currents developed over a time course of 6-8 seconds, indicating recovery from inactivation. Where applicable, statistical errors of averaged data are given as means±S.E.M. with n determinations and statistical significance was assessed by Student's t-test.
For measurements of the L-type current with barium as the charge carrier, whole cell voltage-clamp recordings were performed using an Axopatch 200 amplifier (Axon Instruments) in a bath consisting of 135 mM choline Cl, 10 mM HEPES, 1 mM MgCl2 and 20 mM BaCl2, adjusted to a pH of 7.2 with CsOH. The internal solution consisted of 135 mM CsCl, 10 mM HEPES, 1 mM EGTA, 1 mM EDTA, and 4 mM Mg-ATP, adjusted to a pH of 7.2 with CsOH. Pclamp 8 software was used for data acquisition (Axon Instruments). For square pulse protocols, data were filtered at 2 kHz and sampled at 10 kHz. Patch electrodes were 3.8-4.4 MΩ when filled with internal solution. Leak subtraction was performed online using a P/-4 protocol. 75% series resistance compensation was used with a 10 μs lag. Statistical references indicate the mean±s.e. After forming the whole-cell patch, cells were lifted off the bottom of the dish and placed in front of an array of perfusion tubes made of 250 μm internal diameter quartz tubing (Polymicro Technologies, Phoenix, Ariz.) connected by Teflon tubing to glass reservoirs. […]
A general note: Patch clamp records ionic current or voltage across a cell membrane.

Data set [2] has as its system L-type calcium channels. Put plainly: DM-BODIPY binding competition by flow cytometry in T cell leukemia cell lines. Further details: species or system human. The settings on record: ten-fold excess (S)-(−)-Bay K8644 over 1 μM DM-BODIPY; Jurkat, MOLT-4, CEM, Loucy, SUP-T1. The text has this:
In another method of determining whether a test compound is binding L-type channels, competition with DM-BODIPY dyes is used. Such assays employ DM-BODIPY (Molecular Probes, Eugene, […].), a dihydropyridine analog that is covalently attached to the BODIPY dye. The DM-BODIPY dye binds to L-type calcium channels on the cell surface and can be assessed by flow-cytometry. Accordingly, a test compound can be used in a competition assay with a DM-BODIPY dye. If the test compound is able to compete for binding of the DM-BODIPY dye to a cell expressing an LVCa(v) polypeptide, the test compound is a candidate compound for binding to the LVCa(v) polypeptide and being a modulator of the activity of that channel.
To ascertain the levels of L-type channel expression at the cell surface, cells were stained with an ester form of DM-BODIPY (Molecular Probes, Inc., Eugene, Oreg., catalog no. D-2183) at final concentration of 1 μM in PBS (phosphate buffered saline). Competition of DM-BODIPY binding was performed with a ten-fold excess (S)-(−)-Bay K8644 (Sigma-Aldrich). Analysis was performed using flow cytometry (Becton Dickinson). FIG. 22A illustrates the results of the DM-BODIPY binding experiments. […]
Background: A flow cytometer gives signals particle by particle.

The test system of data set [3] is Jurkat T cells. Nature of the data set: Growth and cell numbers of siRNA-expressing Jurkat clones. In kind it is cell-based, human. As to the method:
(§1) This consensus sequence was used in the design of a sequence that would express an siRNA for stable expression of a hairpin loop containing the consensus sequence. The sequence was cloned into the psiRNA-hHlzeo vector (Invitrogen, San Diego, Calif.), the sequence was verified, and Jurkat cells were transfected with it. To select clones that were positive for expression of the hairpin, 400 micrograms/ml of zeocin was added 24 hours after transfection. […] Independent, individual clones were also generated in parallel. […] Thus, loss of L-type channel expression also correlates with decreased proliferation of Jurkat T cells.
Jurkat cells were stably transfected with each of the siRNA constructs and pools of clones of each were analyzed. RT-PCR was performed on samples from the clones to detect expression of Ca(v)1.3.

The test system of data set [4] is L-type channels. Nature of the data set: DM-BODIPY staining (flow cytometry) of siRNA-expressing Jurkat cells. In kind it is cell-based, human. Here is the method:
as §1
First, control wild type (WT) and L-type siRNA-expressing (LT1) Jurkat T cells were stained with DM-BODIPY and analyzed by flow cytometry (Un indicates unstained cells). The LT1 cells were transfected with an siRNA sequence that targets the majority of L-type channels, and was designed based on sequence consensus of the human L-type calcium channels.

Data set [5] relates to L-type channels. Put plainly: Calcium flux in siRNA-expressing Jurkat cells. Format: cell-based, human. The settings on record: pool of zeocin-resistant Jurkat clones. As to the method:
To assess the effect of expressing the mutant three-domain Ca(v)1.3 on calcium influx in cells, bulk calcium assays were performed using fura-2 (Molecular Probes) ratiometric imaging according to the manufacturer's recommendations. Fura-2 is a calcium-sensitive dye. When excited at short ultra-violet wavelengths (340 nm) the fluorescence of fura-2 increases with increasing calcium concentration, whereas fluorescence decreases with increasing calcium concentration at longer wavelengths (380 nm). By forming a ratio of successive images obtained at each wavelength, a measure of calcium concentration inside the fura-2 loaded cell is obtained.
as §1
(In general: Calcium flux is commonly read through the fluorescence of an indicator in the cells.)

On to `CCCCCCCCCCCCCC(=O)O[C@@H]1[C@@H](C)[C@@]2(O)[C@@H](C=C(CO)C[C@]3(O)C(=O)C(C)=C[C@@H]23)[C@@H]2C(C)(C)[C@]12OC(C)=O` [PMA, phorbol 12-myristate 13-acetate], for which, in data set [1] (Jurkat cells pre-treated with PMA), the L-type current amplitude entry is on record as “significantly increased”.

Consider `COC(=O)C1=C(C)NC(C)=C([N+](=O)[O-])[C@H]1c1ccccc1C(F)(F)F` [BayK8644, (S)-(−)-Bay K8644], for which the “DM-BODIPY binding competed by BayK8644” value in data set [2] was “competed”. Besides, the “reversibility of agonist effect when washed out” value in data set [1] (Jurkat cells) is given as “reversible”. The “cells with discernible DHPR (L-type calcium channel) currents” value in data set [1] (Jurkat cells tested in the presence of BayK8644) is reported as “Five of eleven”. In addition, in data set [1] (Jurkat cells, 10 μM BayK8644, calcium as charge carrier, n=5, +/− s.e.m.), the average current densities was 1+/−0.3 pA/pF. The peak current increase entry in data set [1] (Jurkat cells, in presence of the L-type agonist, calcium as charge carrier) is “five-fold”.

For the molecule “LT1 (DNA AACTGTGAGCTGGACAAGAA; chemistry not given here)”, the growth of clones entry is “slow rate of growth” in data set [3] (individual siRNA-expressing Jurkat clones); “grew very slowly” in data set [3] (individual siRNA-expressing Jurkat clones, listed as consensus sequence); “grew more slowly” in data set [3] (pool of zeocin-resistant Jurkat clones, bulk culture). Moreover, the “reduction in DM-BODIPY binding” value in data set [4] (independent, individual Jurkat clones) was “approximately 90%”. Moreover, the DM-BODIPY binding entry in data set [4] (pool of zeocin-resistant Jurkat clones) is “decrease”. Further, the “decrease of surface expression of L-type channels” value in data set [4] (stable siRNA expression in Jurkat T cells, DM-BODIPY staining) is “about 90%”. Further, the calcium flux result in data set [5] is “marked decrease”.
